What was measured:
Experiment in all cases: relative viability (nuclei count vs DMSO), 5 days (fraction); higher = more cells survive
[1] = compound: Cc1ccc2nc(NCCN)c3ncc(C)n3c2c1
Outline: (§1)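 Vehicle-anchored 1536-well plates of lung cancer cell lines, held overnight at 37 °C, were pinned with five library-drug doses (not always all listed) spaced by √10. No medium change followed over the next 5 days, after which the cells were fixed, permeabilised and Hoechst-stained together and imaged at 4×. Nuclei were counted with MetaXpress, and viability is treated-well nuclei over vehicle-well nuclei, taken as a median across plates. Plates passed with control CV below 25% and at least one doubling.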

[2] = compound: O=C(/C=C/c1ccccc1)NC(NC(=S)Nc1cccc2cccnc12)C(Cl)(Cl)Cl [Salubrinal]
Outline: as §1

[3] = compound: Cc1ccc2nc(NCCN)c3ncc(C)n3c2c1 + CS(=O)(=O)CCNCc1ccc(-c2ccc3ncnc(Nc4ccc(OCc5cccc(F)c5)c(Cl)c4)c3c2)o1 [Lapatinib] (partner 2 µM)
Outline: (§2)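 Relative viability equals treated-well nuclei counts divided by vehicle-well nuclei counts. Counts came from 4× images of lung cancer cell lines grown in 1536-well plates for 5 days after pin-tool dosing on the day after seeding. Dosing used one drug alone or a fixed anchor-drug dose plus five library-drug doses (not always all listed) in √10 steps, and values are medians of duplicate plates.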

[4] = compound: Cc1ccc2nc(NCCN)c3ncc(C)n3c2c1 + COc1cc2c(Oc3ccc(NC(=O)C4(C(=O)Nc5ccc(F)cc5)CC4)cc3F)ccnc2cc1OCCCN1CCOCC1 [Foretinib] (partner 0.25 µM)
Outline: as §2

UMC-11 gave a relative viability ([1]; 0.04 µM) of 1.01, a relative viability ([1]; 0.1265 µM) of 0.918 and a relative viability ([1]; 0.4 µM) of 0.939. For the same cell line, the relative viability ([1]; 1.265 µM) was 0.965, the relative viability ([1]; 4 µM) was 0.946 and the relative viability ([2]; 0.08 µM) was 0.901. It also gave a relative viability ([2]; 0.253 µM) of 0.869, a relative viability ([2]; 0.8 µM) of 1.09 and a relative viability ([2]; 2.53 µM) of 1.01. For the same cell line, the relative viability ([2]; 8 µM) was 1.03, the relative viability ([3]; first compound 0.04 µM) was 1.03 and the relative viability ([3]; first compound 0.1265 µM) was 1.04. It also gave a relative viability ([3]; first compound 0.4 µM) of 0.877, a relative viability ([3]; first compound 1.265 µM) of 0.898 and a relative viability ([3]; first compound 4 µM) of 0.91. The relative viability ([4]; first compound 0.04 µM) was 1.02, the relative viability ([4]; first compound 0.1265 µM) was 0.999 and the relative viability ([4]; first compound 0.4 µM) was 1.02. The relative viability ([4]; first compound 1.265 µM) was 1.01 and the relative viability ([4]; first compound 4 µM) was 0.945.

Reference: the supplement of paper PMC10307832
